Source: ChEMBL document CHEMBL1201862, “PubChem BioAssay data set” (2004)
Active and inactive are the calls of the source.

Assays:
[1] = alpha-synuclein stem-loop luciferase translation blockers – H4 neuroglioma cells, luminescence, confirmation (AID 1988); type: functional, cell-based
[2] = Luminescence Cell-Based Dose Response HTS to Identify Inhibitors of 5'UTR Stem-Loop Driven Prion Protein mRNA Translation in H4 Neuroglioblastoma Cells. [Related pubchem assays: 1827 (Project Summary), 1813 (Primary HTS)]; type: functional
[3] = luciferase reporter signal suppression in cells – H4 neuroglioma cells, luminescence, dose response (AID 1990); type: functional, cell-based
[4] = molecular target: T1, High affinity choline transporter 1 (Homo sapiens, UniProt Q9GZV3); assay: human choline transporter blockers, potency – cell-based, 5-point CRC, membrane potential dye, dose response (AID 504840); type: functional
T1 sequence (Q9GZV3 whole entry): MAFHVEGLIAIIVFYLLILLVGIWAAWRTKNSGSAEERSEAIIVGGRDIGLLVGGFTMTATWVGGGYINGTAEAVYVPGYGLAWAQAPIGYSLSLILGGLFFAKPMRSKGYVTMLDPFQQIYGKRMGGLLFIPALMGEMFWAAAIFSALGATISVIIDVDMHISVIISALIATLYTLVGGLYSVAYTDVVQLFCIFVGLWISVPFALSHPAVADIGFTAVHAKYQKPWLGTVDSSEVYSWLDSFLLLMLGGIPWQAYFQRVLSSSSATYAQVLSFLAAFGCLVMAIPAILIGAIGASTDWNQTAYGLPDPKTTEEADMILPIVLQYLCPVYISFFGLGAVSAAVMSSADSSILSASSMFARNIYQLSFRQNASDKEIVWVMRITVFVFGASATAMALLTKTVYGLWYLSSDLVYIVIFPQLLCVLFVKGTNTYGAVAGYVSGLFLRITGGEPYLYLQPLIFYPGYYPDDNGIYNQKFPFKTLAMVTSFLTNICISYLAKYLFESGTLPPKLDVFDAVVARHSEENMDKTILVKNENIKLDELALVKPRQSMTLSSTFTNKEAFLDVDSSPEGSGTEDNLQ

Large T antigen = Large T antigen (Simian virus 40, UniProt P03070); type: functional, Betapolyomavirus macacae;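 note: Confirmatory-stage PubChem screen for compounds that inhibit SV40 T antigen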
Sequence of Large T antigen (P03070 whole entry): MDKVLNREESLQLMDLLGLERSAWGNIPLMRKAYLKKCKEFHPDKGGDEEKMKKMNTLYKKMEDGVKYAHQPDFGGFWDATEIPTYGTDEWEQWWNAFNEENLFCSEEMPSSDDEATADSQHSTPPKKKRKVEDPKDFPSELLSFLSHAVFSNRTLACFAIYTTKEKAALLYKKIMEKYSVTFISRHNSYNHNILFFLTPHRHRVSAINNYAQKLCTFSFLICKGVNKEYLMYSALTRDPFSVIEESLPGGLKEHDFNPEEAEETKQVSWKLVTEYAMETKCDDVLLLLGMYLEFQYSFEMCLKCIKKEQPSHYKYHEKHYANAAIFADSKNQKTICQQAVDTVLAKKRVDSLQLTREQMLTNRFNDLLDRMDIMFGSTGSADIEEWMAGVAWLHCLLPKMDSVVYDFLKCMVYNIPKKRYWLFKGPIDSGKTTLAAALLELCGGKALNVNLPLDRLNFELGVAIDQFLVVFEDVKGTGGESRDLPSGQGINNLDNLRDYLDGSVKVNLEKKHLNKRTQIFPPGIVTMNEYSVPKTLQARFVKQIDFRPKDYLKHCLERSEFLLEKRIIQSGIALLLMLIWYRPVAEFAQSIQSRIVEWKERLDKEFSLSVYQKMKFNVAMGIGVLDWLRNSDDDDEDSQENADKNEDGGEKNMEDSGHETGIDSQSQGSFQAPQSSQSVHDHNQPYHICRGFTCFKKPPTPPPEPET

[5] = molecular target: Luciferin 4-monooxygenase (Photinus pyralis, UniProt P08659); assay: inhibition of purified Photinus pyralis luciferase – biochemical, luminescence, dose response (AID 1891)
Sequence of Luciferin 4-monooxygenase (P08659 whole entry): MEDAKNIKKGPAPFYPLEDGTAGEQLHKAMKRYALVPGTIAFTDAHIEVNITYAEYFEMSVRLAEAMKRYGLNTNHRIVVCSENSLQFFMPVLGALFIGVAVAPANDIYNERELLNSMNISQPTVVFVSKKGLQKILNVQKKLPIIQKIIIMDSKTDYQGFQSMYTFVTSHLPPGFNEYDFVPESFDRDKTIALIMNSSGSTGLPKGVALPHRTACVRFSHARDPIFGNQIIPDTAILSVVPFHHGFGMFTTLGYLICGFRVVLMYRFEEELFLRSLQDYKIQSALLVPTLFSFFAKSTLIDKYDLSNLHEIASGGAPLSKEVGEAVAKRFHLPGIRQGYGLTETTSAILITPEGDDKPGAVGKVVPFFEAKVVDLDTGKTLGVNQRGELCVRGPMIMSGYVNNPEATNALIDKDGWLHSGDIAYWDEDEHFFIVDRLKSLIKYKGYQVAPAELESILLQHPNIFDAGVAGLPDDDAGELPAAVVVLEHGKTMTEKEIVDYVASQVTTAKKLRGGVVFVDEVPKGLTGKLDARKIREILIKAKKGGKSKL

[6] = Luminescence Cell-Based Dose Confirmation HTS to Identify Inhibitors of Platelet Dense Granule Release. [Related pubchem assays: 1663 (Primary HTS), 1678 (Summary of Project)]; type: functional
Genome polyprotein = Genome polyprotein (dengue virus type 2, UniProt P29990); assay: flavivirus cap methylation enzyme inhibition – biochemical, confirmation dose response, primary screen (AID 588689); type: functional
Sequence of Genome polyprotein (P29990 2492-3391 limits assumed): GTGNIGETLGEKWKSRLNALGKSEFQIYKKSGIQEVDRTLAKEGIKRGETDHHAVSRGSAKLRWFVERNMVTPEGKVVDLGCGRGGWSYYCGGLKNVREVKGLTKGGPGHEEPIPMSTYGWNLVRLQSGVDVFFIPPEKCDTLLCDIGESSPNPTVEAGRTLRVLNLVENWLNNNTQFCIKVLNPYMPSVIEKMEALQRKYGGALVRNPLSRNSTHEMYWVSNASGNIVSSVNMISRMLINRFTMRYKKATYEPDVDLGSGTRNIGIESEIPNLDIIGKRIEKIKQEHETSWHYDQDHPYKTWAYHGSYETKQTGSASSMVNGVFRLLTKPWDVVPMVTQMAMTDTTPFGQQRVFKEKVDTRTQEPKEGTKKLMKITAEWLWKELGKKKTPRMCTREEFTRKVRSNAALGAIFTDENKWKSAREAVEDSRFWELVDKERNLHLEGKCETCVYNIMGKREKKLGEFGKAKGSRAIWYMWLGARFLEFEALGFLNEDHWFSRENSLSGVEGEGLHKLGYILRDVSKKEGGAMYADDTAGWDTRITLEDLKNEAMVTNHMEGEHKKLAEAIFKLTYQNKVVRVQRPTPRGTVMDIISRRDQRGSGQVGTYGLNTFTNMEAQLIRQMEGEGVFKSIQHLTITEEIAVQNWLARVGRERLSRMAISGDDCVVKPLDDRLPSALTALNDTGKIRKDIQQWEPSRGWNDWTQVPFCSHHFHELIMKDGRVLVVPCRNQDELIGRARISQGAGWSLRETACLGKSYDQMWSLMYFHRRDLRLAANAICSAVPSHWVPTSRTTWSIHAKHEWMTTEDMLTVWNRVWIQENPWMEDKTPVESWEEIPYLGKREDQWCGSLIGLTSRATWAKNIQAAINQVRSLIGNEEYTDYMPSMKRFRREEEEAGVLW

[7] = molecular target: T2, Polyadenylate-binding protein 1 (Homo sapiens, UniProt P11940); assay: MLLE domain peptide-binding blockers, IC50 – biochemical, fluorescence polarization, FITC-PAM2 peptide, dose response (AID 602259); type: functional; conditions: read-out: IC50_Mean
T2 sequence (P11940 whole entry, the tested form may be a part): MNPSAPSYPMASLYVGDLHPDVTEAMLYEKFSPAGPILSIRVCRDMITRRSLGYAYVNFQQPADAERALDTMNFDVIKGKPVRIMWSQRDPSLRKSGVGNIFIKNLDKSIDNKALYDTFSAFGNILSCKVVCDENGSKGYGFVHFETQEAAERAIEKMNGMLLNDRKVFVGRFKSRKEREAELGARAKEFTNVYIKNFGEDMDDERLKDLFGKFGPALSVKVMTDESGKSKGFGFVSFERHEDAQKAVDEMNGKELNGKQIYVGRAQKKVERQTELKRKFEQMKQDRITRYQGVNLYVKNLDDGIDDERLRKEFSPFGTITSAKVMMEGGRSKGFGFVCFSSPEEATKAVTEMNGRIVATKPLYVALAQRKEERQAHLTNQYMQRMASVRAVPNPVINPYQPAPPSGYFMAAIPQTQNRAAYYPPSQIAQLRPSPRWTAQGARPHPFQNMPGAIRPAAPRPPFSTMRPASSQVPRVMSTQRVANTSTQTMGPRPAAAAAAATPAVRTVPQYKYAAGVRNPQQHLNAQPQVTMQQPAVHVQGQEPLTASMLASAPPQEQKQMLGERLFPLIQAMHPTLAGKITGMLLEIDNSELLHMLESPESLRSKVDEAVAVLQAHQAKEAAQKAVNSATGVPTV

[8] = molecular target: T2, Polyadenylate-binding protein 1; assay: MLLE binding blockers, Cy5 peptide tracer – biochemical, fluorescence polarization, Cy5-PAM2 peptide, secondary, miRNA deadenylation inhibitor project, dose response (AID 602260); type: functional; conditions: read-out: IC50_Mean
Nonstructural protein 1 = Nonstructural protein 1 (Influenza A virus, UniProt Q194T2); type: functional, Influenza A virus (A/California/07/2009(H1N1))
Sequence of Nonstructural protein 1 (Q194T2 whole entry): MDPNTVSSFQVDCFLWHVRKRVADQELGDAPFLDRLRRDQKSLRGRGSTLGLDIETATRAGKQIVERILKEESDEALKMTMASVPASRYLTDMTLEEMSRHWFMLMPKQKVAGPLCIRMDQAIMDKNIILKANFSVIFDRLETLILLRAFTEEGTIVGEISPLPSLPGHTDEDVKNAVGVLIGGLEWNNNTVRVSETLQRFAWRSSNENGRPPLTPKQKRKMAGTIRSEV

[9] = reduction of Shn3 3'UTR-driven luciferase in osteoblasts – cell-based, Clone20 osteoblasts, firefly luciferase, cherry-picked, dose response (AID 624132); type: functional;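 note: firefly luciferase luminescence from reporter carrying the Shn3 3'UTR in osteoblasts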
[10] = non-specific 3'UTR reporter inhibition in Clone20-Shn3RL – cell-based, Renilla luciferase, cherry-picked, counter-screen for Shn3 inhibitor project, dose response (AID 624133); type: functional
[11] = viability of PTEN-deleted HCT116 cells – cell-based, HCT116 PTEN knockout, dose response (AID 1047); type: functional;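 note: HCT116 colon tumor cells with PTEN knocked out; cells exposed to compound for 60 hours before readout; potency for loss of cell viability measured by luminescence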
[12] = viability of HCT116 lacking mutant beta-catenin – cell-based, human colon tumor, dose response (AID 1045); type: functional;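 note: HCT116 colon tumor cells with beta catenin knocked out; cells exposed to compound for 60 hours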
[13] = HIV-1 AD8 envelope cell-cell fusion blockers – cherry-pick, dose response (AID 652062); type: functional, cell-based;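 note: luciferase signal from cell-cell fusion driven by HIV-1 clade B AD8 Env; potency is for inhibitors of fusion seen as a drop in luminescence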
[14] = blockers of HIV-1 ZM109 envelope-driven cell-cell fusion – HeLa effector, CEM target cells, luciferase, cherry-pick, dose response (AID 652058); type: functional, cell-based;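 note: luciferase signal from HIV-1 Env mediated cell-cell fusion of effector and target cells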
[15] = blockers of HIV-1 envelope-mediated cell-cell fusion – cherry-pick, dose response (AID 652057); type: functional, cell-based
[16] = molecular target: T3, Rac GTPase-activating protein 1 (Homo sapiens, UniProt Q9H0H5); assay: blockers of MgcRacGAP-driven Rac1 GTP hydrolysis – biochemical, ADP Hunter fluorescence, primary and confirmatory, confirmation (AID 624330); type: functional
T3 sequence (Q9H0H5 whole entry): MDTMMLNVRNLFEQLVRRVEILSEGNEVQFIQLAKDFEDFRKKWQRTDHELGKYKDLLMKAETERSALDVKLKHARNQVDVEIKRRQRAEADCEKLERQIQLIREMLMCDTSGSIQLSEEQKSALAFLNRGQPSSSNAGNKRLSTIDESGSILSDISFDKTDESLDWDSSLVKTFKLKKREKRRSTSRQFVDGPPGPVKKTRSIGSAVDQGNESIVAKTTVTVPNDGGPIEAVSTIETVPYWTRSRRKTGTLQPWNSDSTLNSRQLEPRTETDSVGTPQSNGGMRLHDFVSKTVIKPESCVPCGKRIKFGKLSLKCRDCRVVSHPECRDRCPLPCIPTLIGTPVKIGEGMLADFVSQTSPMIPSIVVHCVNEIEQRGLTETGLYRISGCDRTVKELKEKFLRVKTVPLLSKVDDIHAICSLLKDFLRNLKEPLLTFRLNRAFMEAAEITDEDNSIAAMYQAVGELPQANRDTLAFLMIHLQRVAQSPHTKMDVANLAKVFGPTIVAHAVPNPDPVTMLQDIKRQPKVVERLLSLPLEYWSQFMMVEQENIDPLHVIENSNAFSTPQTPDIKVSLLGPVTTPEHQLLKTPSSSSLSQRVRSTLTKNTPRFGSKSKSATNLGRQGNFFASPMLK

[17] = P. falciparum Dd2 growth inhibitors, dose response, SYBR Green, cherry-picked samples (AID 1159567); type: functional, cell-based

## CC(=O)N1c2ccc(S(=O)(=O)NCC3CCC(C(=O)N4CC(C)CC(C)C4)CC3)cc2CC1C (stereo not drawn)
[1]
  EC50: > 120 µM (not active)
[2]
  EC50: > 120 µM (not active)
[3]
  EC50: > 120 µM (not active)

## Cc1c(C(=O)OC(C)C)sc(NC(=O)c2cccnc2)c1C#N
[4]
  IC50: 1.82 µM (active)

## COc1cc(CNc2ccc3c(c2)OCCO3)ccc1OCC(N)=O
Large T antigen
  IC50: 40 µM (active)

## COc1ccc(CCNC(=O)c2ccc3c(c2)SC2=NS(=O)(=O)CCN23)cc1
[5]
  EC50: > 112 µM (not active)
[6]
  EC50: > 112 µM (not active)

## CCCc1cc(NCC2CCCO2)n2c(nc3ccccc32)c1C#N (stereo not drawn)
[4]
  IC50: 8.03 µM (active)

## CC1CCCCC1NC(=O)Cn1nnc2ccccc2c1=O (stereo not drawn)
[1]
  EC50: > 120 µM (not active)
[2]
  EC50: > 120 µM (not active)
[3]
  EC50: > 120 µM (not active)

## Nc1nc2ncc(C(=O)c3cc(Cl)cc(Cl)c3O)cc2s1
Genome polyprotein
  IC50: > 100 µM (active)

## Cc1cc(C)c2cc(C#N)c(N3CCCN(C(S)=NCCCN(C)C)CC3)nc2c1
[1]
  EC50: 9.29 µM (active)
[2]
  EC50: > 120 µM (not active)
[3]
  EC50: > 60 µM (not active)

## CCn1nc([N+](=O)[O-])c(C(C#N)c2nc3ccccc3n2C)c(Cl)c1=O (stereo not drawn)
Genome polyprotein
  IC50: > 100 µM (active)

## CCc1ccc(C(=O)NC(=S)Nc2ccc(N3CCOCC3)cc2)cc1
[7]
  IC50: > 66 µM (inactive)
[8]
  IC50: > 66 µM (inactive)

## O=C1NC(=O)C(=Cc2ccccc2OCCOc2ccc([N+](=O)[O-])cc2)C(=O)N1
Large T antigen
  IC50: 55.9 µM (active)

## CCc1ccc(C(=O)COC(=O)CNC(=O)c2ccco2)cc1
[5]
  EC50: > 112 µM (not active)
[6]
  EC50: > 112 µM (not active)

## O=C(Nc1ccc(O)cc1)c1ccc2c(c1)C(=O)N(Cc1ccco1)C2=O
Large T antigen
  IC50: 9.65 µM (active)

## COc1ccc(SC[C@H](C)CN2CC[C@H](C(C)(C)C)CCC2=O)cc1
[7]
  IC50: > 66 µM (inactive)
[8]
  IC50: > 66 µM (inactive)

## CN(C)c1ccc(NC(=O)COC(=O)CCC(=O)c2ccc(F)cc2)cc1
Large T antigen
  IC50: 19.2 µM (active)

## COc1c(S(=O)(=O)NCCCN2CCOCC2)ccc(Cl)c1Cl
[7]
  IC50: > 66 µM (inactive)
[8]
  IC50: > 66 µM (inactive)

## O=C(CCCn1nnc2ccccc2c1=O)N[C@H](C(=O)O)c1ccccc1
[5]
  EC50: > 112 µM (not active)
[6]
  EC50: > 112 µM (not active)

## O=C(O)C1=CC[C@@H](c2ccc(Cl)cc2)N(S(=O)(=O)c2ccc(Cl)cc2)[C@H]1c1ccc(F)cc1
[4]
  IC50: 13.2 µM (active)

## COc1ccc(CNC(=O)c2cc(S(=O)(=O)N3CCCC3)cn2C)cc1
[5]
  EC50: > 112 µM (not active)
[6]
  EC50: > 112 µM (not active)

## COc1ccc(NC(=O)c2cc([N+](=O)[O-])ccc2NC(=O)CNCc2ccccn2)c(OC)c1
Nonstructural protein 1
  IC50: 4.45 µM (active)

## CCN1CCSc2ccc(C(=O)NCc3ccccc3C)cc21
[5]
  EC50: > 112 µM (not active)
[6]
  EC50: > 112 µM (not active)

## COC(=O)C(O)(c1cn(C)c2ccccc12)C(F)(F)F (stereo not drawn)
[5]
  EC50: > 112 µM (not active)
[6]
  EC50: > 112 µM (not active)

## c1ccc(CNc2nc3ccccc3n3cnnc23)cc1
[1]
  EC50: 22.2 µM (active)
[2]
  EC50: > 120 µM (not active)
[3]
  EC50: > 120 µM (not active)

## O=C(O)CN1C(=O)/C(=C\c2cc(Br)ccc2OCc2ccccc2F)SC1=S
Genome polyprotein
  IC50: 33.1 µM (active)

## CC(C)c1ccccc1NC(=O)COC(=O)CCN1C(=O)/C(=C\C=C\c2ccccc2)SC1=S
[1]
  EC50: 7.14 µM (active)
[2]
  EC50: 27.8 µM (active)
[3]
  EC50: 1.54 µM (active)

## CCCCN1C2=NCCCN2c2cc(C)c(C)cc21
[9]
  AC50: 0.803 µM (active)
[10]
  AC50: 4.56 µM (active)

## O=C1NC(=O)C(=Cc2coc3ccccc3c2=O)C(=O)N1
Genome polyprotein
  IC50: > 100 µM (active)
[4]
  IC50: 15.1 µM (active)

## COC(=O)c1ccc2c(=O)n(NC(=O)C(c3ccccc3)c3ccccc3)c(=S)[nH]c2c1
[7]
  IC50: > 66 µM (inactive)
[8]
  IC50: > 66 µM (inactive)

## COc1cc(OC)cc(C(=O)NCC(=O)N2CCN(c3ccc(O)cc3)CC2)c1
Large T antigen
  IC50: 65.2 µM (active)

## CC(C)(C)C(=O)/C(=C\c1ccc([N+](=O)[O-])cc1)n1cncn1
[5]
  EC50: > 112 µM (not active)
[6]
  EC50: 5.77 µM (active)
[11]
  EC50: 1.58 µM (active)
[12]
  EC50: 1.29 µM (active)

## O=C(Nc1ccccc1)c1cccc(S(=O)(=O)NC2CCCC2)c1
[4]
  IC50: 13.2 µM (active)

## CCCCCCCCN1[C@@H](CC(=O)O)c2ccc(C(F)(F)F)cc2S1(=O)=O
[4]
  IC50: 18.2 µM (active)

## CCOC(=O)c1c(/N=C/c2cccc([N+](=O)[O-])c2O)sc(C)c1C
Genome polyprotein
  IC50: 77.1 µM (active)
[7]
  IC50: 36.1 µM (inactive)

## Fc1c(F)c(F)c(/C=N/NC(=S)Nc2cccnc2)c(F)c1F
[7]
  IC50: > 66 µM (inactive)
[8]
  IC50: > 66 µM (inactive)

## O=C(C[C@@H]1CC[C@H](NC(=O)c2cccc(F)c2)[C@H](CO)O1)NCc1ccc(Oc2ccccc2)cc1
[13]
  AC50: 15.2 µM (active)
[14]
  AC50: 27 µM (active)
[15]
  AC50: 28.5 µM (active)

## COc1ccc(S(=O)(=O)N(C)C[C@@H]2Oc3ccc(NC(=O)Cn4cnnn4)cc3CC(=O)N([C@H](C)CO)C[C@@H]2C)cc1
[13]
  AC50: 3.68 µM (active)
[14]
  AC50: 2.33 µM (active)
[15]
  AC50: 3.38 µM (active)

## Cc1ccc(S(=O)(=O)Nc2ccc3c(c2)CC(=O)N([C@H](C)CO)C[C@H](C)[C@H](CN(C)S(=O)(=O)c2ccc(C)cc2)O3)cc1
[13]
  AC50: 4.36 µM (active)
[15]
  AC50: 1.19 µM (active)

## COc1ccc2[nH]c3c(=O)n(CCCCC(=O)NCCN4CCCC4)c(=S)[nH]c3c2c1
Large T antigen
  IC50: 10.4 µM (active)

## Cc1c(NC(=S)N/N=C/c2ccc([N+](=O)[O-])cc2O)c(=O)n(-c2ccccc2)n1C
Nonstructural protein 1
  IC50: 5.14 µM (active)

## Oc1ccc(/C=N/NC(=S)NCC2CCCO2)cc1 (stereo not drawn)
Large T antigen
  IC50: 5.89 µM (active)
[16]
  IC50: 30.8 µM (active)

## CN(C)c1ccc2c(c1)[C@H]1C[C@H](CC(=O)NCc3ccc(Oc4ccccc4)cc3)O[C@H](CO)[C@H]1O2
[17]
  AC50: 10.5 µM (active)

## COc1ccc2c3c([nH]c2c1)[C@H](CO)N(Cc1ccccc1OC)CC31CCN(S(=O)(=O)c2ccccc2)CC1
[17]
  AC50: 6.43 µM (active)

## CCCNC(=O)Nc1ccc2c(c1)OC[C@H](C)N(Cc1ccc(-c3ccccn3)cc1)C[C@H](C)[C@H](OC)CN(C)C2=O
[17]
  AC50: 5.09 µM (active)

## O=C(Nc1ccc(F)cc1)N1CCCCN2[C@H](C1)[C@H](c1ccc(C#Cc3ccccc3)cc1)[C@@H]2CO
[17]
  AC50: 5.46 µM (active)

## CO[C@H]1CN(C)C(=O)c2cc(NC(=O)Cc3ccccc3)ccc2OC[C@H](C)N(C(=O)c2ccccc2F)C[C@H]1C
[17]
  AC50: 4.94 µM (active)
